From PubChem BioAssay AID248 (DTP/NCI, 2004)
Several values for one entry are separate records, joined by “and”; a condition that tells them apart may be missing. Equal values may be shown once. Toxic doses and inconclusive results are not listed. Cut-off read from the data, not from the text of the source: active = T/C of 150% or more; inactive = T/C below 125%.

System: L1210 leukemia ip in BDF1 mice, survival T/C
Test: NCI In Vivo Anticancer Drug Screen. Data for tumor model L1210 Leukemia (intraperitoneal) in B6D2F1 (BDF1) mice
Conditions: endpoint: mean survival time, higher = longer survival
How it was run: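 In this screen, tumor-bearing mice given compound are compared to those given vehicle, and their survival values are reported as a treated-to-control quotient.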

[1] = dose: 100.0 mg/kg/injection, schedule: Q01DX009 (ip), vehicle: saline with Tween-80
[2] = dose: 100.0 mg/kg/injection, schedule: Q04DX003 (ip), vehicle: saline with Tween-80
[3] = dose: 200.0 mg/kg/injection, schedule: Q01DX009 (ip), vehicle: saline with Tween-80
[4] = dose: 200.0 mg/kg/injection, schedule: Q04DX003 (ip), vehicle: saline with Tween-80
[5] = dose: 400.0 mg/kg/injection, schedule: Q01DX009 (ip), vehicle: saline with Tween-80
[6] = dose: 400.0 mg/kg/injection, schedule: Q04DX003 (ip), vehicle: saline with Tween-80
[7] = dose: 100.0 mg/kg/injection, schedule: Q01DX009 (ip), vehicle: Klucel (hydroxypropylcellulose) (HPC)
[8] = dose: 200.0 mg/kg/injection, schedule: Q01DX009 (ip), vehicle: Klucel (hydroxypropylcellulose) (HPC)
[9] = dose: 50.0 mg/kg/injection, schedule: Q01DX001 (ip), vehicle: carboxymethylcellulose (CMC)
[10] = dose: 100.0 mg/kg/injection, schedule: Q01DX001 (ip), vehicle: carboxymethylcellulose (CMC)
[11] = dose: 200.0 mg/kg/injection, schedule: Q01DX001 (ip), vehicle: carboxymethylcellulose (CMC)
[12] = dose: 400.0 mg/kg/injection, schedule: Q01DX001 (ip), vehicle: carboxymethylcellulose (CMC)
[13] = dose: 100.0 mg/kg/injection, schedule: Q01DX001 (ip), vehicle: saline
[14] = dose: 200.0 mg/kg/injection, schedule: Q01DX001 (ip), vehicle: saline
[15] = dose: 400.0 mg/kg/injection, schedule: Q01DX001 (ip), vehicle: saline
[16] = dose: 50.0 mg/kg/injection, schedule: Q01DX009 (ip), vehicle: saline with Tween-80
[17] = dose: 50.0 mg/kg/injection, schedule: Q01DX001 (ip), vehicle: saline
[18] = dose: 100.0 mg/kg/injection, schedule: Q04DX002 (ip), vehicle: Klucel (hydroxypropylcellulose) (HPC)
[19] = dose: 200.0 mg/kg/injection, schedule: Q04DX002 (ip), vehicle: Klucel (hydroxypropylcellulose) (HPC)
[20] = dose: 400.0 mg/kg/injection, schedule: Q04DX002 (ip), vehicle: Klucel (hydroxypropylcellulose) (HPC)

Measured: T/C

Brc1cc(Br)c(I)c(Br)c1
inactive: [1] 102 % of control | [2] 96 % of control | [3] 101 % of control | [4] 108 % of control | [5] 101 % of control | [6] 103 % of control

O=c1[nH]cnc2cc(Cl)ccc12
inactive: dose: 50.0 mg/kg/injection, schedule: Q01DX009 (ip), vehicle: Klucel (hydroxypropylcellulose) (HPC) 91 % of control | [7] 102 % of control | [8] 100 % of control

C=CC(C)NC(=S)NNC(=S)NC (stereo not given)
inactive: dose: 15.0 mg/kg/injection, schedule: Q01DX015 (ip), vehicle: carboxymethylcellulose (CMC) 95 % of control | dose: 30.0 mg/kg/injection, schedule: Q01DX015 (ip), vehicle: carboxymethylcellulose (CMC) 104 % of control | [9] 104 % of control | dose: 60.0 mg/kg/injection, schedule: Q01DX015 (ip), vehicle: carboxymethylcellulose (CMC) 95 % of control | [10] 105 % of control | dose: 120.0 mg/kg/injection, schedule: Q01DX015 (ip), vehicle: carboxymethylcellulose (CMC) 98 % of control | [11] 109 % of control | dose: 240.0 mg/kg/injection, schedule: Q01DX015 (ip), vehicle: carboxymethylcellulose (CMC) 87 % of control and 89 % of control

Cc1ccccc1N=Nc1c(O)n(-c2ccc(I)cc2)c(=S)n(-c2ccccc2)c1=O
inactive: dose: 37.5 mg/kg/injection, schedule: Q01DX001 (ip), vehicle: Klucel (hydroxypropylcellulose) (HPC) 103 % of control | dose: 75.0 mg/kg/injection, schedule: Q01DX001 (ip), vehicle: Klucel (hydroxypropylcellulose) (HPC) 113 % of control | dose: 150.0 mg/kg/injection, schedule: Q01DX001 (ip), vehicle: Klucel (hydroxypropylcellulose) (HPC) 105 % of control

Cc1nnc(NS(=O)(=O)c2ccc(N=Nc3cc(N=Nc4ccccc4)c(N)nc3N)cc2)s1
inactive: [10] 87 % of control | [11] 89 % of control | [12] 97 % of control

CCCCCCCCCCCCBr
inactive: dose: 100.0 mg/kg/injection, schedule: Q04DX002 (ip), vehicle: saline with Tween-80 102 % of control | dose: 200.0 mg/kg/injection, schedule: Q04DX002 (ip), vehicle: saline with Tween-80 97 % of control | dose: 400.0 mg/kg/injection, schedule: Q04DX002 (ip), vehicle: saline with Tween-80 102 % of control

COc1ccc(/C(C#N)=C2C=C/C(=N/O)c3ccccc3\2)cc1
inactive: [9] 92 % of control | [10] 92 % of control | [11] 87 % of control | [12] 89 % of control

CCOC(=O)COc1ccc(N2C(N)=NC(N)=NC2(C)C)cc1
inactive: [13] 107 % of control | dose: 100.0 mg/kg/injection, schedule: Q01DX009 (ip), vehicle: saline 117 % of control | [14] 102 % of control | dose: 200.0 mg/kg/injection, schedule: Q01DX009 (ip), vehicle: saline 98 % of control | [15] 97 % of control | dose: 400.0 mg/kg/injection, schedule: Q01DX009 (ip), vehicle: saline 104 % of control

CC(=O)Nc1ccc(OC(=O)Nc2cc(C(F)(F)F)ccc2Cl)cc1
inactive: [7] 93 % of control | [8] 111 % of control

CC(=O)c1ccc(Cc2ccc(C(C)=O)cc2)cc1
inactive: [7] 98 % of control | [8] 98 % of control | dose: 400.0 mg/kg/injection, schedule: Q01DX009 (ip), vehicle: Klucel (hydroxypropylcellulose) (HPC) 106 % of control

CCC(=O)C(C)(C)c1ccccc1 (tested in a mixture with another compound)
inactive: [16] 95 % of control | [1] 88 % of control | [3] 96 % of control

CCSC1C(O)C(CO)OC1n1ccc(=O)[nH]c1=O (stereo not given)
inactive: dose: 100.0 mg/kg/injection, schedule: Q01DX005 (ip), vehicle: saline 92 % of control | dose: 200.0 mg/kg/injection, schedule: Q01DX005 (ip), vehicle: saline 101 % of control

CC1([N+](=O)[O-])COP(=O)(OCCc2ccccc2)OC1 (stereo not given)
inactive: [17] 95 % of control | [13] 98 % of control | [14] 93 % of control | [15] 98 % of control

CCOC(=O)C[n+]1cccc(Br)c1
inactive: [10] 91 % of control | [11] 104 % of control | [12] 104 % of control

NNC(=O)CNc1cccc(I)c1
inactive: [18] 102 % of control | [19] 95 % of control | [20] 109 % of control

CC(=O)OCC1OC(OC(C)=O)C(OC(C)=O)C1OC(C)=O (stereo not given)
inactive: [13] 107 % of control | [14] 106 % of control | [15] 102 % of control

Cc1cc(=O)cc(Nc2ccccc2)o1
inactive: [18] 93 % of control | [19] 90 % of control | [20] 101 % of control

c1ccc(N=C(Nc2ccccc2)c2ccccc2)cc1
inactive: [18] 103 % of control | [2] 94 % of control | [19] 111 % of control | [4] 91 % of control | [6] 92 % of control

O=C(O)c1ccc(NCc2cccc(NCCCc3ccccc3)c2)cc1
inactive: dose: 100.0 mg/kg/injection, schedule: Q01DX001 (ip), vehicle: saline with Tween-80 92 % of control | dose: 200.0 mg/kg/injection, schedule: Q01DX001 (ip), vehicle: saline with Tween-80 92 % of control | dose: 400.0 mg/kg/injection, schedule: Q01DX001 (ip), vehicle: saline with Tween-80 93 % of control

CC(=O)c1ccc(Oc2ccc(C(C)=O)cc2)cc1
inactive: [9] 103 % of control | [10] 105 % of control | [18] 106 % of control | [11] 92 % of control | [19] 102 % of control | [12] 92 % of control | [20] 91 % of control

CCSc1ccc2c(cc1=O)C(NC(C)=O)CCc1cc(OC)c(OC)c(OC)c1-2 (stereo not given)
inactive: dose: 25.0 mg/kg/injection, schedule: Q04DX002 (ip), vehicle: Klucel (hydroxypropylcellulose) (HPC) 105 % of control | dose: 50.0 mg/kg/injection, schedule: Q04DX002 (ip), vehicle: Klucel (hydroxypropylcellulose) (HPC) 102 % of control

Cc1ccc(CC2NC(=O)NC2=O)cc1 (stereo not given)
inactive: dose: 25.0 mg/kg/injection, schedule: Q01DX009 (ip), vehicle: saline with Tween-80 102 % of control | [16] 96 % of control | [1] 104 % of control | [3] 96 % of control | [5] 94 % of control

CSc1nc(C)c(NC(C)=O)c(=O)[nH]1
inactive: [17] 98 % of control | [13] 101 % of control | [14] 98 % of control | [15] 104 % of control

CN(C)/C=N/n1cnnc1
inactive: dose: 100.0 mg/kg/injection, schedule: Q04DX003 (ip), vehicle: saline 94 % of control | dose: 200.0 mg/kg/injection, schedule: Q04DX003 (ip), vehicle: saline 98 % of control | dose: 400.0 mg/kg/injection, schedule: Q04DX003 (ip), vehicle: saline 102 % of control

Cn1c(N)cc(=O)n(C)c1=O
inactive: dose: 100.0 mg/kg/injection, schedule: Q01DX001 (ip), vehicle: Klucel (hydroxypropylcellulose) (HPC) 112 % of control | dose: 200.0 mg/kg/injection, schedule: Q01DX001 (ip), vehicle: Klucel (hydroxypropylcellulose) (HPC) 107 % of control | dose: 400.0 mg/kg/injection, schedule: Q01DX001 (ip), vehicle: Klucel (hydroxypropylcellulose) (HPC) 109 % of control

CCC(Cl)COP(=O)(OCC(Cl)CC)C(CC)OP(=S)(OCC(Cl)CC)OCC(Cl)CC (stereo not given)
inactive: dose: 87.5 mg/kg/injection, schedule: Q01DX009 (ip), vehicle: Klucel (hydroxypropylcellulose) (HPC) 95 % of control | dose: 175.0 mg/kg/injection, schedule: Q01DX009 (ip), vehicle: Klucel (hydroxypropylcellulose) (HPC) 99 % of control

CCCc1ccccc1O
inactive: dose: 100.0 mg/kg/injection, schedule: Q04DX003 (ip), vehicle: alcohol 97 % of control | dose: 200.0 mg/kg/injection, schedule: Q04DX003 (ip), vehicle: alcohol 94 % of control

CC/C(C)=N/Nc1ccc([N+](=O)[O-])cc1[N+](=O)[O-]
inactive: dose: 100.0 mg/kg/injection, schedule: Q01DX001 (ip), vehicle: other 94 % of control | dose: 200.0 mg/kg/injection, schedule: Q01DX001 (ip), vehicle: other 94 % of control | dose: 400.0 mg/kg/injection, schedule: Q01DX001 (ip), vehicle: other 97 % of control

CCOc1ccc(NC(=O)Nc2ccccc2)cc1
inactive: [1] 94 % of control | [2] 96 % of control | [3] 93 % of control | [4] 94 % of control | [5] 93 % of control | [6] 94 % of control

CCC1(C)CC(=O)N(C/C=C(\C)CCC=C(C)C)C(=O)C1
inactive: [2] 100 % of control | [4] 105 % of control | [6] 97 % of control
